The conditions of data set [1]: cited from earlier work. The text has this:
First, we will contextualize bioavailability in the RID by including these parameters in the RID calculation (RIDF). […] The oral bioavailability of semaglutide is low but unknown per a medical information request at Novo Nordisk (B. Shah, personal communication, 20 June 2024). As such, oral bioavailability will be overestimated using the available parameter for semaglutide formulated with the permeability enhancer, SNAC (F < 0.01), though SNAC will not be present in this scenario [32]. This overestimate will assist in co ... || However, rather than simply converting the weekly dose to an equivalent daily dose, the estimation of RID can be further extrapolated to estimate steady-state conditions over the full week by considering the plasma concentration-time profile of the […]. […] Overgaard et al. published population pharmacokinetic parameters of semaglutide. According to this publication, the disposition of semaglutide after subcutaneous administration follows a 2-compartment model with first-order absorption from the injection ...

Another data set has as its system breastfed infants. The note with it: in vivo.
Data set [2] can be described thus: estimation of relative infant dose (RID, RIDF, RIDFP) from milk. Format: in vivo, human. The note with it: milk concentration assumed = LLOQ 5.7 ng/mL. The text has this: The maternal weight-adjusted infant dose, the relative infant dose (RID%), is often used to assess infant exposure to drugs through breastfeeding. This parameter is the percentage of an infant dose of drug via a full diet of human milk relative to the maternal dose (mg/kg) over the same period. An RID of […] is often considered a safety threshold in risk assessments. (1) RID (%)=100 × infant daily oral dose per kg from milk/maternal daily dose per kg
The fraction’s numerator is computed as the product of the measured drug concentration present in milk times estimated milk intake of 150 mL/kg/day.
The RID calculation was adjusted to include parameters for bioavailability and extended dosing intervals, which will improve the interpretation of RID in the setting of subcutaneous semaglutide injection.
First, we will contextualize bioavailability in the RID by including these parameters in the RID calculation (RIDF). […] The oral bioavailability of semaglutide is low but unknown per a medical information request at Novo Nordisk (B. Shah, personal communication, 20 June 2024). As such, oral bioavailability will be overestimated using the available parameter for semaglutide formulated with the permeability enhancer, SNAC (F < 0.01), though SNAC will not be present in this scenario [32]. […]

From the text for breastfed infants: This study utilized data collected from the InfantRisk Human Milk Biorepository (HMB) which has been approved on 22 February 2021 by the institutional ethics committee (A21-4214). The biorepository targets the collection of milk samples and self-related health information for mother and infant dyad via a questionnaire. […] Therefore, we prioritized collecting samples immediately before any dose changes, even if this occurred prior to reaching steady state concentrations, to maximize the informativeness of our analysis. Participants were asked to express milk samples after a minimum of three administrations of the same dose. Milk samples collected from 0, 12, and 24 h post-administration and their corresponding de-identified health questionnaires were released for 8 different individuals from the HMB for this study. If milk samples for multiple doses were provided, samples were only released from the biorepository for the highest dose collected closest to steady-state.

Take `CC[C@H](C)[C@H](NC(=O)[C@H](Cc1ccccc1)NC(=O)[C@H](CCC(=O)O)NC(=O)[C@H](CCCCNC(=O)COCCOCCNC(=O)COCCOCCNC(=O)CC[C@H](NC(=O)CCCCCCCCCCCCCCCCC(=O)O)C(=O)O)NC(=O)[C@H](C)NC(=O)[C@H](C)NC(=O)[C@H](CCC(N)=O)NC(=O)CNC(=O)[C@H](CCC(=O)O)NC(=O)[C@H](CC(C)C)NC(=O)[C@H](Cc1ccc(O)cc1)NC(=O)[C@H](CO)NC(=O)[C@H](CO)NC(=O)[C@@H](NC(=O)[C@H](CC(=O)O)NC(=O)[C@H](CO)NC(=O)[C@@H](NC(=O)[C@H](Cc1ccccc1)NC(=O)[C@@H](NC(=O)CNC(=O)[C@H](CCC(=O)O)NC(=O)C(C)(C)NC(=O)[C@@H](N)Cc1cnc[nH]1)[C@@H](C)O)[C@@H](C)O)C(C)C)C(=O)N[C@@H](C)C(=O)N[C@@H](Cc1c[nH]c2ccccc12)C(=O)N[C@@H](CC(C)C)C(=O)N[C@H](C(=O)N[C@@H](CCCNC(=N)N)C(=O)NCC(=O)N[C@@H](CCCNC(=N)N)C(=O)NCC(=O)O)C(C)C` [semaglutide]: the “oral bioavailability (F)” value in data set [1] (semaglutide formulated with the permeability enhancer SNAC, used as overestimate) is under 0.01. Besides, the subcutaneous bioavailability in data set [1] (subcutaneous) was 89%. Further, in the data set with breastfed infants, the “infant growth, all infants” value was “unremarkable” and the “infant milestones, all infants” value is listed as “meeting or surpassing expected milestones”. Moreover, the “RIDF (%), maximum possible” value in data set [2] (Equation (2), mean maternal weight 93 kg, mean 0.56 mg/week SC, F(oral) 0.01, F(S.C.) 89%, weekly dose/7) is reported as under 1.12%. In addition, the “maximum dose to the infant possible without detecting semaglutide in milk” value in data set [2] (infant milk intake 150 mL/kg/day) is reported as 855 ng/kg/day.

Values taken from publication PMC11397063, “Subcutaneous Semaglutide during Breastfeeding: Infant Safety Regarding Drug Transfer into Human Milk” (Nutrients, 2024).
